Experimental data taken from PMC6015749 (Neurotoxicology, 2018).
“And” between values parts separate entries of the source, which are not always exact repeats. Equal values may be shown once. “Also recorded” adds a separate entry of the source. Read-outs that look alike come from different tables or passages of the source.

What was measured:
[1] = tested on: dopaminergic (TH+, MAP2+) neurons in primary midbrain cultures; type: cell-based, rat; details: for percentage of dopaminergic neurons (mean ± SEM), time course: n = 4, control 6.30 ± 0.58; for mean % dopaminergic neurons ± S.E.M: n = 6; for DA neuron loss at 1 µM / Selective loss of dopaminergic neurons: vs. control
[2] = tested on: total neurons (MAP2+) in primary midbrain cultures; assay: Neurite length quantification, pan-neuronal; type: cell-based, rat; details: 1 µM, 24 – 72 h, all time-points
[3] = tested on: dopaminergic (TH+) neurites in primary midbrain cultures; assay: Neurite length quantification of dopaminergic; type: cell-based, rat; details: for Change in dopaminergic (TH+) neurite length, time course: 24 – 72 h; for Dopaminergic (TH+) neurite length (mean ± SEM) / Decrease in dopaminergic (TH+) neurite length / Concentration at which decreased dopaminergic (TH+) neurite length was detected / Change in dopaminergic (TH+) neurite length: 24 h; for Decrease in dopaminergic (TH+) neurite length: vs. control; for Concentration at which decreased dopaminergic (TH+) neurite length was detected: doses 100 nM – 5 µM
[4] = tested on: non-dopaminergic (TH-, MAP2+) neurons in primary midbrain cultures; assay: Raw non-dopaminergic; type: cell-based, rat; details: 1 µM, 24 – 72 h, all time-points
[5] = ref PubChem Compound Database; cited from earlier work
[6] = tested on: dopaminergic (TH+, MAP2+) neurons in primary midbrain cultures; assay: 3-Nitrotyrosine; details: 1 µM; for NT fluorescence intensity normalized to mean control value ± SEM, dopaminergic neurons: control 100 ± 9.1
[7] = tested on: non-dopaminergic (TH-, MAP2+) neurons in primary midbrain cultures; assay: 3-Nitrotyrosine; details: 1 µM; control 100 ± 21.61

Structure (SMILES)	percentage of dopaminergic neurons (mean ± SEM), time course ([1]; 1 µM, 24 h) [%]	mean % dopaminergic neurons ± S.E.M ([1]; 1 µM, 24 h) [%]	DA neuron loss at 1 µM ([1]; 1 µM, 24 h)	percentage of dopaminergic neurons (mean ± SEM), time course ([1]; 1 µM, 48 h) [%]	percentage of dopaminergic neurons (mean ± SEM), time course ([1]; 1 µM, 72 h) [%]	Effect on non-dopaminergic neurites, time course [2]	Change in dopaminergic (TH+) neurite length, time course ([3]; 1 µM)	Dopaminergic (TH+) neurite length (mean ± SEM) ([3]; 1 µM) [µm]	Decrease in dopaminergic (TH+) neurite length ([3]; 1 µM) [%]	Effect on non-dopaminergic (MAP2+/TH-) cell counts, time course [4]	further results
Cn1c(N)nc2ncc(-c3ccccc3)cc21 [PhIP, 2-amino-1-methyl-6-phenylimidazo[4,5-b]pyridine]	5.17 ± 0.95	4.612 ± 0.3403	19%	4.60 ± 0.70	3.61 ± 0.45	not affected	Decreased	57.76 ± 1.656	15	not affected	
Cc1cnc2ccc3c(nc(N)n3C)c2n1 [MeIQx, 2-amino-3,8-dimethylmidazo[4,5-f]quinoxaline]		4.207 ± 0.3535	17%					61.97 ± 1.94	12		Concentration at which decreased dopaminergic (TH+) neurite length was detected [3]: 1000 nM; Log P [5]: 1.0
Cn1c(N)nc2c3cccnc3ccc21 [IQ, 2-amino-3-methylimidazo[4,5-f]quinoline]			Not significant								mean % dopaminergic neurons ± S.E.M ([1]; 5 µM, 24 h): 4.338 ± 0.4525%; Selective loss of dopaminergic neurons ([1]; 5 µM, 24 h): 23%; Change in dopaminergic (TH+) neurite length ([3]; higher doses): not significant decreases; Change in dopaminergic (TH+) neurite length ([3]; low doses (100 and 200 nM)): significant increases
Cc1cnc2cc(C)c3c(nc(N)n3C)c2n1 [4,8-DiMeIQx, 2-amino-3,4,8-trimethylimidazo[4,5-f]quinoxaline]			26%								mean % dopaminergic neurons ± S.E.M ([1]; 100 nM, 24 h): 4.663 ± 0.3194%; Selective loss of dopaminergic neurons ([1]; 100 nM, 24 h): 20%; Change in dopaminergic (TH+) neurite length ([3]; all tested doses 100 nM – 5 µM): no significant alteration; also recorded: did not have an effect
Cc1cc2ncccc2c2nc(N)n(C)c12 [MeIQ, 2-amino-3,4-dimethylimidazo[4,5-f]quinoline]	5.51 ± 0.66		25%	5.11 ± 0.66	3.90 ± 0.81	not affected	Decreased	63.58 ± 1.584	10	not affected	Fold increase in NT immunofluorescence signal vs. control, dopaminergic neurons [6]: > 5 fold and ~4 fold; NT fluorescence intensity normalized to mean control value ± SEM, dopaminergic neurons [6]: 362.9 ± 45.8; mean % dopaminergic neurons ± S.E.M ([1]; 200 nM, 24 h): 4.372 ± 0.3579%; Selective loss of dopaminergic neurons ([1]; 200 nM, 24 h): 23%; NT fluorescence intensity normalized to mean control value ± SEM, non-dopaminergic neurons [7]: 130.1 ± 14.91
Cc1nccc2c1[nH]c1ccccc12 [Harmane, 1-methyl-9H-pyrido[3,4-b]indole]	6.04 ± 0.72		21%	4.80 ± 0.90	3.47 ± 0.53	not affected	Decreased			not affected	Fold increase in NT immunofluorescence signal vs. control, dopaminergic neurons [6]: ~7 fold; NT fluorescence intensity normalized to mean control value ± SEM, dopaminergic neurons [6]: 731.3 ± 94.03; Threshold for detectable selective DA neurotoxicity [1]: 200 nM; mean % dopaminergic neurons ± S.E.M ([1]; 200 nM, 24 h): 4.677 ± 0.2123%; Selective loss of dopaminergic neurons ([1]; 200 nM, 24 h): 15%; NT fluorescence intensity normalized to mean control value ± SEM, non-dopaminergic neurons [7]: 188.1 ± 23.92; Dopaminergic (TH+) neurite length (mean ± SEM) ([3]; 100 nM): 62.67 ± 1.713 µm; Decrease in dopaminergic (TH+) neurite length ([3]; 100 nM): 14%
Nc1ccc2c(n1)[nH]c1ccccc12 [AαC, 2-amino-9H-pyrido[2,3-b]indole]		3.932 ± 0.4382	27%								Dopaminergic (TH+) neurite length (mean ± SEM) ([3]; 100 nM): 62.93 ± 1.743 µm; Decrease in dopaminergic (TH+) neurite length ([3]; 100 nM): 11%
c1ccc2c(c1)[nH]c1cnccc12 [Norharmane, 9H-Pyrido[3,4-B]indole]			20%								mean % dopaminergic neurons ± S.E.M ([1]; 100 nM, 24 h): 4.703 ± 0.3711%; Selective loss of dopaminergic neurons ([1]; 100 nM, 24 h): 18%; Dopaminergic (TH+) neurite length (mean ± SEM) ([3]; 500 nM): 63.15 ± 1.864 µm; Decrease in dopaminergic (TH+) neurite length ([3]; 500 nM): 11%; Concentration at which decreased dopaminergic (TH+) neurite length was detected [3]: 500 nM; Concentration at which decreased dopaminergic (TH+) neurite length was detected ([3]; listed as norharmane): ≥ 500 nM
